Assay results as given in PubChem BioAssay (NCI).
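Where inhibition never reached the appropriate level, the endpoint shown equals the highest concentration tested. Otherwise, values were interpolated linearly from a five-concentration, 48-hour dose response in 96-well plates. Here, GI50 denotes the concentration required for 50% inhibition of growth. TGI marks complete inhibition of growth.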

tested on: SF-539 CNS; assay: inhibition of tumour cell growth, NCI panel, 48 h

Compound	GI50 [µM]	TGI [µM]
CCn1c(-c2nonc2N)nc2c(C#CC(C)(C)O)nc(OC[C@@H](N)c3ccccc3)cc21	3.73	7.71
Cn1ccc2c3c(Oc4ccc(NC(N)=O)cc4)ccnc3ccc21	> 100	> 100
CCCOc1cc2ccccc2cc1C(=O)Nc1nc(N)c2c(ccc3nccc32)[nH]1	0.0538	1.04
CC(=O)OCCOCNC(=S)N/N=C(\C)c1cnccn1		> 100
Nc1n[nH]c2cc(F)c([C@@H]3Nc4ccc5[nH]ncc5c4[C@H]4C5CCC(C5)[C@@H]34)cc12 (some centres undefined)	0.115	0.322
O=C(Nc1ccccc1-c1nn(C(=S)Nc2ccccc2)c(=S)n(C(=S)Nc2ccccc2)c1=O)C(F)(F)F		> 100
COC[C@H]1Cn2cc(-c3nc(Nc4ccnn4C)ncc3C)nc2C(=O)N1Cc1ccc(F)c(F)c1	27.1	> 100
O=c1c(-c2ccccc2)c2oc(c1-c1ccccc1)CSCc1cccc(c1)CSC2		60.4

tested on: SW-620 colon; assay: inhibition of tumour cell growth, NCI panel, 48 h

Compound	GI50 [µM]	TGI [µM]
COc1cc(/C(C#N)=C/c2nc3c(N4CCOCC4)nc(Cl)nc3n2C)cc(OC)c1OC	< 0.01	> 100
Cc1nnc(NC(=O)c2nc(S(=O)(=O)Cc3ccc(F)cc3)ncc2Cl)s1	1.51	3.25
CC(C)[C@@H]1C=C2CC[C@H]3[C@](C)(CN)CCC[C@]3(C)[C@H]2CC1	1.73	3.23
O=CNc1ccc2c(c1)C(=O)c1ccccc1-2		> 100
O=C(Nc1ccc(Oc2ccc(Nc3nc4ccccc4s3)cc2)cc1)Nc1ccc(Cl)c(C(F)(F)F)c1	1.75	3.54
Nc1ccc(C2=NNC(=O)Cc3cc4c(cc32)OCCO4)cc1Cl	2.01	> 50
COc1ccc2nc3cc(Cl)ccc3c(NCCNCC(C)O)c2c1 (centres undefined)	0.818	10.3
CCn1c(-c2nonc2N)nc2c(C#CC(C)(C)O)nc(OC[C@@H](N)c3ccccc3)cc21	4.58	9.5
Cn1ccc2c3c(Oc4ccc(NC(N)=O)cc4)ccnc3ccc21	> 100	> 100
CCCOc1cc2ccccc2cc1C(=O)Nc1nc(N)c2c(ccc3nccc32)[nH]1	0.0377	1.8
CC(=O)OCCOCNC(=S)N/N=C(\C)c1cnccn1		> 100
Nc1n[nH]c2cc(F)c([C@@H]3Nc4ccc5[nH]ncc5c4[C@H]4C5CCC(C5)[C@@H]34)cc12 (some centres undefined)	0.188	> 25
O=C(Nc1ccccc1-c1nn(C(=S)Nc2ccccc2)c(=S)n(C(=S)Nc2ccccc2)c1=O)C(F)(F)F		> 64.7
COC[C@H]1Cn2cc(-c3nc(Nc4ccnn4C)ncc3C)nc2C(=O)N1Cc1ccc(F)c(F)c1	0.156	> 100
O=c1c(-c2ccccc2)c2oc(c1-c1ccccc1)CSCc1cccc(c1)CSC2		> 100

tested on: SK-MEL-2 melanoma; assay: inhibition of tumour cell growth, NCI panel, 48 h

Compound	GI50 [µM]	TGI [µM]
COc1cc(/C(C#N)=C/c2nc3c(N4CCOCC4)nc(Cl)nc3n2C)cc(OC)c1OC	< 0.0144	62.7
Cc1nnc(NC(=O)c2nc(S(=O)(=O)Cc3ccc(F)cc3)ncc2Cl)s1	3.19	9.72
CC(C)[C@@H]1C=C2CC[C@H]3[C@](C)(CN)CCC[C@]3(C)[C@H]2CC1	3.88	14.2
O=CNc1ccc2c(c1)C(=O)c1ccccc1-2		> 100
O=C(Nc1ccc(Oc2ccc(Nc3nc4ccccc4s3)cc2)cc1)Nc1ccc(Cl)c(C(F)(F)F)c1	2.12	4.35
Nc1ccc(C2=NNC(=O)Cc3cc4c(cc32)OCCO4)cc1Cl	2.81	44.6
COc1ccc2nc3cc(Cl)ccc3c(NCCNCC(C)O)c2c1 (centres undefined)	2.08	4.26
CCn1c(-c2nonc2N)nc2c(C#CC(C)(C)O)nc(OC[C@@H](N)c3ccccc3)cc21	5.83	10.2
Cn1ccc2c3c(Oc4ccc(NC(N)=O)cc4)ccnc3ccc21	> 100	> 100
CCCOc1cc2ccccc2cc1C(=O)Nc1nc(N)c2c(ccc3nccc32)[nH]1	0.0368	1.32
CC(=O)OCCOCNC(=S)N/N=C(\C)c1cnccn1		> 100
Nc1n[nH]c2cc(F)c([C@@H]3Nc4ccc5[nH]ncc5c4[C@H]4C5CCC(C5)[C@@H]34)cc12 (some centres undefined)	0.798	20.1
O=C(Nc1ccccc1-c1nn(C(=S)Nc2ccccc2)c(=S)n(C(=S)Nc2ccccc2)c1=O)C(F)(F)F		> 66.7
COC[C@H]1Cn2cc(-c3nc(Nc4ccnn4C)ncc3C)nc2C(=O)N1Cc1ccc(F)c(F)c1	0.0964	> 100
